In ChEMBL document CHEMBL4483862, “Open-source discovery of chemical leads for next-generation chemoprotective antimalarials” (2018):

System: Plasmodium berghei
Assay: Luciferase/luciferin-expressing antifolate-resistant parasites were used to infect a culture of HepG2 cells that were pre-incubated with compounds. Infected hepatocytes emit light due to the luciferase reaction. Assay results are presented as the percent inhibition of light emission compared to control. […]
Assay type: functional
Conditions: sporozoite; for IC90: read-out: LUCIFERASE INFECTION ASSAY - IC90

Row | Structure (SMILES) | IC90 [µM] | other results
1 | O=C(c1cc(-c2ccccc2)[nH]n1)N1CCN(S(=O)(=O)c2ccccc2)CC1 | > 10 | IC50 (PBLUC_HILL_SLOPE 0.361, PBLUC_R_SQUARED 0.34, read-out: LUCIFERASE INFECTION ASSAY - IC50): 1.07 µM
2 | Cc1cc(C(=O)Cn2nnc3ccccc3c2=O)c(C)n1-c1ccccc1F | 3.8 | IC50 (PBLUC_HILL_SLOPE 0.371, 0.679, PBLUC_R_SQUARED 0.784, 0.965, read-out: LUCIFERASE INFECTION ASSAY - IC50): 0.126 µM
3 | COc1cc(-c2nc3ccc(NC(=O)c4ccco4)cn3n2)cc(OC)c1OC | > 10 | IC50 (PBLUC_HILL_SLOPE 0.261, PBLUC_R_SQUARED 0.0451, read-out: LUCIFERASE INFECTION ASSAY - IC50): > 10 µM
4 | COC(=O)c1c(NC(=O)CSc2nnc(-c3ccccc3Cl)n2C2CCCC2)sc(C)c1C | > 10 | IC50 (PBLUC_HILL_SLOPE 0.364, PBLUC_R_SQUARED 0.4, read-out: LUCIFERASE INFECTION ASSAY - IC50): > 10 µM
5 | CC(C)c1nc(NCC2CCCO2)c(C#N)c2c1CCCC2 (stereo not given) | > 11 | IC50 (PBLUC_HILL_SLOPE 0.297, PBLUC_R_SQUARED 0.0572, read-out: LUCIFERASE INFECTION ASSAY - IC50): > 11 µM
6 | Nc1n[nH]c(Nc2cccc(Cl)c2Cl)c1C(=O)c1cccs1 | 3.45 | IC50 (PBLUC_HILL_SLOPE 0.162, PBLUC_R_SQUARED 0.284, read-out: LUCIFERASE INFECTION ASSAY - IC50): < 0.0128 µM
7 | C=CCNC(=S)N1CCc2sccc2C1c1ccc(OC)cc1 (stereo not given) | > 9.58 | IC50 (PBLUC_HILL_SLOPE 0.135, PBLUC_R_SQUARED 0.112, read-out: LUCIFERASE INFECTION ASSAY - IC50): > 9.58 µM
8 | O=C(N/N=C1/C(=O)c2cccc3cccc1c23)c1ccccc1-n1cccc1 | > 10 | IC50 (PBLUC_HILL_SLOPE 0.275, PBLUC_R_SQUARED 0.0663, read-out: LUCIFERASE INFECTION ASSAY - IC50): > 10 µM
9 | Cc1ccc2c(Cl)cc(Cl)c(Oc3ncnc4scc(-c5ccc(Cl)cc5)c34)c2n1 | > 10 | IC50 (PBLUC_HILL_SLOPE 0.397, PBLUC_R_SQUARED 0.123, read-out: LUCIFERASE INFECTION ASSAY - IC50): > 10 µM
10 | Cc1ccc(Sc2nc(-c3cccs3)ns2)cc1 | > 11.4 | IC50 (PBLUC_HILL_SLOPE 0.427, PBLUC_R_SQUARED 0.742, read-out: LUCIFERASE INFECTION ASSAY - IC50): 0.259 µM
11 | Cc1cc2oc(=O)cc(Cn3cnc([N+](=O)[O-])c3)c2cc1C | > 10 | IC50 (PBLUC_HILL_SLOPE 0.353, PBLUC_R_SQUARED 0.0201, read-out: LUCIFERASE INFECTION ASSAY - IC50): > 10 µM
12 | COc1ccc2ccccc2c1/C=N/n1c(-c2ccc(Br)s2)cs/c1=N\c1ccc(Cl)cc1 | > 10 | IC50 (PBLUC_HILL_SLOPE 0.354, PBLUC_R_SQUARED 0.256, read-out: LUCIFERASE INFECTION ASSAY - IC50): > 10 µM
13 | O=C(Nc1cc(C(F)(F)F)cc(C(F)(F)F)c1)c1cc2ccccc2s1 | > 8.48 | IC50 (PBLUC_HILL_SLOPE 0.25, PBLUC_R_SQUARED 0.0524, read-out: LUCIFERASE INFECTION ASSAY - IC50): > 8.48 µM
14 | O=C(Nc1ccc(Cl)cc1)O/N=C(\Nc1ccc(OC(F)(F)F)cc1)c1c(Cl)cccc1Cl | > 6.36 | IC50 (PBLUC_HILL_SLOPE 0.408, PBLUC_R_SQUARED 0.392, read-out: LUCIFERASE INFECTION ASSAY - IC50): > 6.36 µM
15 | CN(C)S(=O)(=O)c1cccc(C(=O)Nc2cnc3ccccc3c2)c1 | > 10 | IC50 (PBLUC_HILL_SLOPE 0.341, PBLUC_R_SQUARED 0.599, read-out: LUCIFERASE INFECTION ASSAY - IC50): 0.331 µM
16 | Cc1cc(-n2c(-c3cccnc3Oc3ccccc3)n[nH]c2=S)ccc1Br | > 7.51 | IC50 (PBLUC_HILL_SLOPE 0.263, PBLUC_R_SQUARED 0.232, read-out: LUCIFERASE INFECTION ASSAY - IC50): > 7.51 µM
17 | CCCn1c(C)cc(/C=C(\C#N)C(=O)OCC(=O)Nc2sc(C)c(-c3ccc(C)cc3)c2C(=O)OCC)c1C | > 10 | IC50 (PBLUC_HILL_SLOPE 0.191, PBLUC_R_SQUARED 0.0121, read-out: LUCIFERASE INFECTION ASSAY - IC50): > 10 µM
18 | Clc1ccc(C2=NC(c3ccc(Cl)c(Cl)c3)N=C(c3ccc(Cl)cc3)S2)cc1 | > 7.08 | IC50 (PBLUC_HILL_SLOPE 0.411, PBLUC_R_SQUARED 0.521, read-out: LUCIFERASE INFECTION ASSAY - IC50): > 7.08 µM
19 | CCOC(=O)c1c(C)[nH]c(C(=O)Nc2cccc(C)n2)c1C | > 10 | IC50 (PBLUC_HILL_SLOPE 0.344, PBLUC_R_SQUARED 0.589, read-out: LUCIFERASE INFECTION ASSAY - IC50): 0.0971 µM
20 | CCCCn1nc(C)c(C(=O)Nc2nc3ccccc3[nH]2)c1Cl | > 10 | IC50 (PBLUC_HILL_SLOPE 0.43, PBLUC_R_SQUARED 0.84, read-out: LUCIFERASE INFECTION ASSAY - IC50): 0.0912 µM

Row | Structure (SMILES) | IC90 [µM] | other results
21 | COc1ccc(N2CCN(CCCNS(=O)(=O)c3ccc(Cl)cc3C(F)(F)F)CC2)cc1 | > 10 | IC50 (PBLUC_HILL_SLOPE 0.0792, 17.3, PBLUC_R_SQUARED 0.0344, 0.317, read-out: LUCIFERASE INFECTION ASSAY - IC50): 9.67 µM
22 | COc1ccc(Cl)cc1COC(=O)COc1ccc2c(c1)CCC(=O)N2 | > 10 | IC50 (PBLUC_HILL_SLOPE 0.441, PBLUC_R_SQUARED 0.194, read-out: LUCIFERASE INFECTION ASSAY - IC50): > 10 µM
23 | CS(=O)(=O)c1nc2ccccc2n1CC(=O)c1ccc2c(c1)CCO2 | > 10 | IC50 (PBLUC_HILL_SLOPE 0.389, PBLUC_R_SQUARED 0.133, read-out: LUCIFERASE INFECTION ASSAY - IC50): > 10 µM
24 | O=C(CCCc1cccs1)Nc1nnc[nH]1 | > 10 | IC50 (PBLUC_HILL_SLOPE 0.436, PBLUC_R_SQUARED 0.0408, read-out: LUCIFERASE INFECTION ASSAY - IC50): > 10 µM
25 | CCn1c(CNC(=O)C2CCN(c3ccc(C#N)cn3)CC2)nc2ccccc21 | > 10 | IC50 (PBLUC_HILL_SLOPE 0.433, PBLUC_R_SQUARED 0.506, read-out: LUCIFERASE INFECTION ASSAY - IC50): 4.94 µM
26 | COc1cccc(NC(=O)c2cc(C(C)(C)C)n(-c3ccccc3)c2C)c1 | > 9.1 | IC50 (PBLUC_HILL_SLOPE 0.223, PBLUC_R_SQUARED 0.111, read-out: LUCIFERASE INFECTION ASSAY - IC50): > 9.1 µM
27 | CCCCc1ccc(C(=O)Nc2nc3ccccn3c2C(=O)NCCCN2CCOCC2)cc1 | > 7.12 | IC50 (PBLUC_HILL_SLOPE 0.361, PBLUC_R_SQUARED 0.518, read-out: LUCIFERASE INFECTION ASSAY - IC50): 2.21 µM
28 | COc1ccccc1NC(=S)N/N=C/c1ccc(N2CCOCC2)cc1 | > 10 | IC50 (PBLUC_HILL_SLOPE 0.342, PBLUC_R_SQUARED 0.162, read-out: LUCIFERASE INFECTION ASSAY - IC50): 1.98 µM
29 | CN(C)CCCOc1ccc(-c2ccc(C(C)(C)C)cc2)cn1 | > 10.6 | IC50 (PBLUC_HILL_SLOPE 0.428, PBLUC_R_SQUARED 0.727, read-out: LUCIFERASE INFECTION ASSAY - IC50): 0.0859 µM
30 | O=C(COc1ccccc1CSc1ccc(Cl)cc1)N/N=C\c1ccc(Cl)cc1 | > 7.41 | IC50 (PBLUC_HILL_SLOPE 0.291, PBLUC_R_SQUARED 0.508, read-out: LUCIFERASE INFECTION ASSAY - IC50): > 7.41 µM
31 | O=C(Nc1ccc(Cl)cc1)OCc1nccn1Cc1ccc(Cl)cc1 | > 8.77 | IC50 (PBLUC_HILL_SLOPE 0.184, PBLUC_R_SQUARED 0.0602, read-out: LUCIFERASE INFECTION ASSAY - IC50): > 8.77 µM
32 | COc1ccc(S(=O)(=O)NC(C)(C)C)cc1C(C)(C)C | > 3.33 | IC50 (PBLUC_HILL_SLOPE 0.386, PBLUC_R_SQUARED 0.474, read-out: LUCIFERASE INFECTION ASSAY - IC50): 0.196 µM
33 | CC1(C)CC(CCNCc2ccc(F)cc2)(Cc2ccccc2)CCO1 (stereo not given) | 4.13 | IC50 (HEPG2TOX_HILL_SLOPE 551, HEPG2TOX_R_SQUARED 0.482, PBLUC_HILL_SLOPE 3.65, PBLUC_R_SQUARED 0.507, read-out: LUCIFERASE INFECTION ASSAY - IC50): 2.26 µM
34 | N=C1NC(=O)C(C2(O)C(=O)N(Cc3ccccc3)c3ccc(Cl)cc32)S1 (stereo not given) | > 8.51 | IC50 (PBLUC_HILL_SLOPE 0.13, PBLUC_R_SQUARED 0.0166, read-out: LUCIFERASE INFECTION ASSAY - IC50): > 8.51 µM
35 | C(#Cc1ccc(-c2cc[nH]n2)s1)c1ccccc1 | > 13.2 | IC50 (PBLUC_HILL_SLOPE 0.121, PBLUC_R_SQUARED 0.262, read-out: LUCIFERASE INFECTION ASSAY - IC50): 0.0465 µM
36 | O=C(Nc1ccc(N2CCCC2)cn1)c1cc(Cl)ccn1 | 2.06 | IC50 (PBLUC_HILL_SLOPE 0.363, 0.720, PBLUC_R_SQUARED 0.388, 0.822, read-out: LUCIFERASE INFECTION ASSAY - IC50): 0.119 µM
37 | Cc1cnc(C(=O)Nc2cc(C(F)(F)F)ccc2N2CCN(C)CC2)cn1 | > 10 | IC50 (PBLUC_HILL_SLOPE 0.31, PBLUC_R_SQUARED 0.853, read-out: LUCIFERASE INFECTION ASSAY - IC50): > 10 µM
38 | O=C(COC(=O)C1Cc2ccccc2CN1S(=O)(=O)/C=C/c1ccccc1)c1ccccc1 (stereo not given) | > 10 | IC50 (PBLUC_HILL_SLOPE 0.237, PBLUC_R_SQUARED 0.0458, read-out: LUCIFERASE INFECTION ASSAY - IC50): > 10 µM
39 | Cc1cc2ncc(-c3ccnc(SCC(=O)Nc4ccc(Cl)cc4Cl)n3)c(C)n2n1 | > 7.18 | IC50 (PBLUC_HILL_SLOPE 0.44, PBLUC_R_SQUARED 0.0613, read-out: LUCIFERASE INFECTION ASSAY - IC50): > 7.18 µM
40 | CCOC(=O)c1sc(N(Cc2ccccc2)C(=O)C2CC2C)nc1C (stereo not given) | > 10 | IC50 (PBLUC_HILL_SLOPE 0.389, PBLUC_R_SQUARED 0.128, read-out: LUCIFERASE INFECTION ASSAY - IC50): 1.6 µM
